Tests used:
Assay in all cases: relative viability (nuclei count vs DMSO), 5 days (fraction); higher = more cells survive
Pictilisib + Trametinib = compound: CS(=O)(=O)N1CCN(Cc2cc3nc(-c4cccc5[nH]ncc45)nc(N4CCOCC4)c3s2)CC1 [Pictilisib] + CC(=O)Nc1cccc(-n2c(=O)n(C3CC3)c(=O)c3c(Nc4ccc(I)cc4F)n(C)c(=O)c(C)c32)c1 [Trametinib] (partner 0.02 µM)
Outline: (§1)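 Cells from lung cancer lines were seeded into 1536-well plates and, one day later, dosed by pin tool. Treatments were either a single drug or a fixed dose of an anchor drug with five library-drug doses (not always all listed) in √10 steps. After 5 days, nuclei were stained in a one-step fixation (final 0.05% Triton X-100, 1% formaldehyde, 1 ug/ml Hoechst) and counted on 4× images, and relative viability is the treated-to-vehicle nuclei ratio, as the median of duplicate plates.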

Pictilisib + Pemetrexed = compound: CS(=O)(=O)N1CCN(Cc2cc3nc(-c4cccc5[nH]ncc45)nc(N4CCOCC4)c3s2)CC1 [Pictilisib] + Nc1nc2[nH]cc(CCc3ccc(C(=O)N[C@@H](CCC(=O)O)C(=O)O)cc3)c2c(=O)[nH]1 [Pemetrexed] (partner 0.2 µM)
Outline: as §1

Pictilisib + Luminespib = compound: CS(=O)(=O)N1CCN(Cc2cc3nc(-c4cccc5[nH]ncc45)nc(N4CCOCC4)c3s2)CC1 [Pictilisib] + CCNC(=O)c1noc(-c2cc(C(C)C)c(O)cc2O)c1-c1ccc(CN2CCOCC2)cc1 [Luminespib] (partner 0.01 µM)
Outline: as §1

Pictilisib + Palbociclib = compound: CS(=O)(=O)N1CCN(Cc2cc3nc(-c4cccc5[nH]ncc45)nc(N4CCOCC4)c3s2)CC1 [Pictilisib] + CC(=O)c1c(C)c2cnc(Nc3ccc(N4CCNCC4)cn3)nc2n(C2CCCC2)c1=O [Palbociclib] (partner 0.5 µM)
Outline: as §1

MK-2206 + Pemetrexed = compound: NC1(c2ccc(-c3nc4ccn5c(=O)[nH]nc5c4cc3-c3ccccc3)cc2)CCC1 [MK-2206] + Nc1nc2[nH]cc(CCc3ccc(C(=O)N[C@@H](CCC(=O)O)C(=O)O)cc3)c2c(=O)[nH]1 [Pemetrexed] (partner 0.2 µM)
Outline: as §1

Row | Cell Line | relative viability (Pictilisib + Trametinib; first compound 0.02 µM) | relative viability (Pictilisib + Trametinib; first compound 0.06325 µM) | relative viability (Pictilisib + Trametinib; first compound 0.6325 µM) | relative viability (Pictilisib + Trametinib; first compound 2 µM) | relative viability (Pictilisib + Pemetrexed; first compound 0.02 µM) | relative viability (Pictilisib + Pemetrexed; first compound 0.06325 µM) | relative viability (Pictilisib + Pemetrexed; first compound 0.6325 µM) | relative viability (Pictilisib + Pemetrexed; first compound 2 µM) | relative viability (Pictilisib + Luminespib; first compound 0.02 µM) | relative viability (Pictilisib + Luminespib; first compound 0.06325 µM) | relative viability (Pictilisib + Luminespib; first compound 0.6325 µM) | relative viability (Pictilisib + Luminespib; first compound 2 µM) | relative viability (Pictilisib + Palbociclib; first compound 0.02 µM) | relative viability (Pictilisib + Palbociclib; first compound 0.06325 µM) | relative viability (Pictilisib + Palbociclib; first compound 0.6325 µM) | relative viability (Pictilisib + Palbociclib; first compound 2 µM) | relative viability (MK-2206 + Pemetrexed; first compound 0.01 µM) | relative viability (MK-2206 + Pemetrexed; first compound 0.03162 µM) | relative viability (MK-2206 + Pemetrexed; first compound 0.3162 µM) | relative viability (MK-2206 + Pemetrexed; first compound 1 µM)
1 | 201T | 0.737 | 0.686 | 0.659 | 0.585 | 0.301 | 0.352 | 0.289 | 0.276 | 1.04 | 1 | 0.869 | 0.576 | 0.332 | 0.377 | 0.332 | 0.284 | 0.318 | 0.313 | 0.342 | 0.333
2 | A-427 | 0.733 | 0.716 | 0.505 | 0.287 | 0.955 | 0.984 | 0.969 | 0.803 | 0.864 | 0.97 | 0.855 | 0.724 | 0.512 | 0.511 | 0.504 | 0.508 | 1.03 | 0.925 | 1.07 | 1.05
3 | ABC-1 |  |  |  |  |  |  |  |  | 0.514 | 0.583 | 0.394 | 0.545 | 0.683 | 0.583 | 0.469 | 0.416 |  |  |  | 
4 | BEN | 1.02 | 0.953 | 0.962 | 0.636 | 0.809 | 0.858 | 0.81 | 0.546 | 0.54 | 0.269 | 0.275 | 0.438 | 0.442 | 0.488 | 0.443 | 0.439 | 0.736 | 0.767 | 0.679 | 0.697
5 | CAL-12T | 0.332 | 0.331 | 0.221 | 0.178 | 1.31 | 1.4 | 1.18 | 1.04 | 0.452 | 0.249 | 0.339 | 0.143 | 0.385 | 0.604 | 0.457 | 0.167 | 1.12 | 1.07 | 1.28 | 1.06
6 | COR-L23 | 0.596 | 0.582 | 0.384 | 0.285 | 0.187 | 0.185 | 0.199 | 0.19 | 0.768 | 0.808 | 0.562 | 0.442 | 0.335 | 0.349 | 0.273 | 0.208 | 0.184 | 0.187 | 0.195 | 0.172
7 | COR-L 105 | 0.382 | 0.4 | 0.432 | 0.38 | 1.19 | 1.04 | 1.22 | 0.885 | 0.987 | 0.803 | 0.715 | 0.466 | 0.429 | 0.477 | 0.423 | 0.399 | 1.22 | 1.08 | 1.29 | 1.28
8 | ChaGo-K-1 | 0.813 | 0.873 | 0.79 | 0.631 | 0.265 | 0.268 | 0.231 | 0.237 | 0.663 | 0.63 | 0.502 | 0.499 | 0.942 | 0.954 | 0.844 | 0.72 | 0.267 | 0.268 | 0.265 | 0.265
9 | EKVX | 0.424 | 0.287 | 0.268 | 0.193 | 0.371 | 0.354 | 0.366 | 0.221 | 0.875 | 0.942 | 0.833 | 0.408 | 0.378 | 0.348 | 0.348 | 0.184 | 0.372 | 0.386 | 0.393 | 0.356
10 | EMC-BAC-2 | 0.863 | 0.869 | 0.685 | 0.513 | 0.45 | 0.451 | 0.424 | 0.41 | 1.23 | 0.945 | 0.926 | 0.656 | 0.502 | 0.498 | 0.401 | 0.337 | 0.435 | 0.377 | 0.439 | 0.407
11 | EPLC-272H | 0.275 | 0.278 | 0.212 | 0.126 | 0.297 | 0.342 | 0.231 | 0.185 | 0.213 | 0.424 | 0.184 | 0.207 | 0.348 | 0.298 | 0.317 | 0.243 | 0.329 | 0.319 | 0.3 | 0.354
12 | H3255 | 0.611 | 0.556 | 0.394 | 0.243 | 0.611 | 0.613 | 0.525 | 0.399 | 0.922 | 0.796 | 0.688 | 0.666 | 0.314 | 0.375 | 0.297 | 0.292 | 0.557 | 0.614 | 0.538 | 0.508
13 | HARA | 0.626 | 0.715 | 0.479 | 0.129 | 0.277 | 0.329 | 0.239 | 0.212 | 0.767 | 0.622 | 0.113 | 0.166 | 0.305 | 0.269 | 0.187 | 0.161 | 0.269 | 0.23 | 0.265 | 0.217
14 | HCC-15 | 0.359 | 0.334 | 0.237 | 0.178 | 0.224 | 0.224 | 0.224 | 0.202 | 0.493 | 0.346 | 0.38 | 0.291 | 0.682 | 0.704 | 0.678 | 0.475 | 0.254 | 0.198 | 0.218 | 0.204
15 | HCC-44 | 0.896 | 1.03 | 1.01 | 0.643 | 0.655 | 0.642 | 0.695 | 0.673 | 1.11 | 1.01 | 0.54 | 0.344 | 1.02 | 1.01 | 0.955 | 0.977 | 0.632 | 0.593 | 0.61 | 0.675
16 | HCC-78 | 0.681 | 0.561 | 0.404 | 0.281 | 0.894 | 0.911 | 0.861 | 0.893 |  |  |  |  | 0.566 | 0.481 | 0.403 | 0.361 | 0.934 | 0.924 | 0.909 | 0.934

Source: the supplement of paper PMC10307832
